A short description of series [1]: Stability of Schiff base 17 / amine 18 (in vivo reflectance spectroscopy). The note with it: 17: in vivo, converted into acetyl analog 15, determined by in vivo reflectance spectroscopy. As for the experimental part:
For example, when the reaction was performed at elevated temperature, the N-fluorinated derivative 15 and the corresponding Schiff base 17 (obtained from the reaction of the 3-acetyl group with an amine) was isolated in almost equal ratio. However, at low temperature, 3-acetyl-N-substituted-bacteriopurpurinimide 15 was isolated as a major product. Bacteriochlorin 15 on reaction with sodium borohydride and then with HBr gas followed by a reaction with n-butyl alcohol produced the corresponding butyl ether derivative 16. […] However, reduction of 17 with sodium borohydride at room temperature produced stable amine 18. See Scheme 2.

Series [2] concerns RIF tumors. As to the kind of experiment: In vivo photosensitizing (PDT) efficacy, tumor response in C3H mice transplanted with RIF tumors. On the set-up: species or system mouse. As for the experimental part:
In brief, C3H/HEJ mice were subjected to intradermal injection with 2×10^5 RIF cells in […] HBSS w/o Ca^+2 and magnesium, into the flank and allowed to grow until they were 4-5 mm in diameter. The day before tumors were treatment size, the mice were injected with variable doses of substantially pure photosensitizers (1.0 mg/kg, 0.4 mg/kg). […] The mice (6 mice/group in two groups) were checked daily, the tumors were measured using two orthogonal measurements L and W (perpendicular to L) and the volumes were calculated using the formula V=L×W^2/2 and recorded. Mice were considered cured if there was no palpable tumor at 90 days post-PDT treatment.
In the control group, six mice were exposed to light without injecting any photosensitizer.
The in vivo photosensitizing efficacy of bacteriochlorins 16 and 18 was determined in C3H mice (5 mice/group) at variable concentration up to 1.0 μmol/Kg.

Series [3] is described as follows: Electronic absorption spectra in dichloromethane. In kind it is physicochemical. How it is done:
The electronic absorption spectra of PHOTOFRIN® (a porphyrin analog), HPPH (a chlorin bearing a five-membered isocyclic ring) and the purpurinimide 9 (a chlorin with an expanded, six-membered fused imide ring) were measured in dichloromethane at the same molar concentrations.

The mark [4] stands for this setting: dose 1.0 μmol/Kg, day 90, C3H mice.

As for `CCC1c2cc3[nH]c4c(c5nc(cc6[nH]c(cc(n2)C1C)c(C(C)NCc1cc(C(F)(F)F)cc(C(F)(F)F)c1)c6C)[C@@H](C)[C@@H]5CCC(=O)OC)C(=O)N(Cc1cc(C(F)(F)F)cc(C(F)(F)F)c1)C(=O)c4c3C` (stereo partly shown) [compound 18], in series [1], the stability entry is reported as “stable”. In addition, in series [2] (setting [4]), the mice tumor free is 3/5 and the tumor response came to 60%.
With HPPH, in series [3], the “red-shift compared with PHOTOFRIN” value worked out at 30 nm. Moreover, in series [3] (same molar concentrations), the “ε (long wavelength absorption)” value is recorded as 45,000 and the “λmax (long wavelength absorption)” value turned out to be 660 nm.
Turning to “purpurin-18-N-butyl-3-O-{1′-3″,5″-bis(trifluoromethyl)-benzyl ether}imide [compound 12]”, in series [2] (dose 0.4 mg/kg, light 706 nm, 135 J/cm2 at 24 hours post-injection, day 90, C3H/HeJ mice), the tumor response is listed as 66%.
